Literature values, collected in patent publication US20060009509A1, “Progesterone receptor antagonists, contraceptive regimens, and kits” (Wyeth, priority 2004, published 2006).
Like-named read-outs stand apart in the source and are kept apart here.

System: women

## CC#C[C@]1(O)CC[C@H]2[C@@H]3CCC4=CC(=O)CCC4=C3[C@@H](c3ccc(N(C)C)cc3)C[C@@]21C [mifepristone]
1 mg daily, 3-month treatment (Croxatto 1998)
  women who ovulated at least once: 14 of 21
2 mg continuous, 4 months, Edinburgh site (Brown 2002)
  ovulations, % of cycles: 9.6%
2 mg continuous, Shanghai site (Brown 2002)
  ovulations, % of cycles: 2.5%
5 mg continuous, 4 months, Edinburgh site (Brown 2002)
  ovulations, % of cycles: 5.2%
5 mg continuous, Shanghai site (Brown 2002)
  ovulations, % of cycles: 1.2%
Continuous dose of 1 mg, study of 11 subjects (Batista 1992)
  prevention of ovulation: appeared to prevent ovulation
Continuous dose of 1 mg, study with 5 subjects (Croxatto 1993)
  prevention of ovulation: not
Continuous low doses 2-10 mg, one treatment cycle, about 5 subjects per dose group (Spitz 1993; Ledger 1992)
  prevention of ovulation: prevent ovulation
